{"source": "ChEMBL document CHEMBL5214967", "about": "“Natural Product-Inspired Targeted Protein Degraders: Advances and Perspectives” (J Med Chem, 2022)", "key": {"[1]": {"molecular_target": "Protein cereblon/E3 ubiquitin-protein ligase Mdm2 (Homo sapiens) (UniProt Q00987+Q96SW2)", "sequence (Q00987 whole entry, looked up)": "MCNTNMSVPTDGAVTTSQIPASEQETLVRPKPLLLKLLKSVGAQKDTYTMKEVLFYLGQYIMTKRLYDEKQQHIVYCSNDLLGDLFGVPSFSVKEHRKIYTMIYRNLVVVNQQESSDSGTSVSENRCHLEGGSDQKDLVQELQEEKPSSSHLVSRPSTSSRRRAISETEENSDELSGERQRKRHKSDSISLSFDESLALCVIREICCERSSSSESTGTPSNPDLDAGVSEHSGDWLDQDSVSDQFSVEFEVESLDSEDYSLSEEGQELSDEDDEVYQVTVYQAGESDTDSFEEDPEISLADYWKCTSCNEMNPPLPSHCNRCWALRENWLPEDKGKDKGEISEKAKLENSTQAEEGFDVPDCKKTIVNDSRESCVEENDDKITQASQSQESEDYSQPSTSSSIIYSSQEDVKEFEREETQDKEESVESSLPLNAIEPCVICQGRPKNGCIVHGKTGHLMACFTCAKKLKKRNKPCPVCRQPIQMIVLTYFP", "sequence (Q96SW2 whole entry, looked up)": "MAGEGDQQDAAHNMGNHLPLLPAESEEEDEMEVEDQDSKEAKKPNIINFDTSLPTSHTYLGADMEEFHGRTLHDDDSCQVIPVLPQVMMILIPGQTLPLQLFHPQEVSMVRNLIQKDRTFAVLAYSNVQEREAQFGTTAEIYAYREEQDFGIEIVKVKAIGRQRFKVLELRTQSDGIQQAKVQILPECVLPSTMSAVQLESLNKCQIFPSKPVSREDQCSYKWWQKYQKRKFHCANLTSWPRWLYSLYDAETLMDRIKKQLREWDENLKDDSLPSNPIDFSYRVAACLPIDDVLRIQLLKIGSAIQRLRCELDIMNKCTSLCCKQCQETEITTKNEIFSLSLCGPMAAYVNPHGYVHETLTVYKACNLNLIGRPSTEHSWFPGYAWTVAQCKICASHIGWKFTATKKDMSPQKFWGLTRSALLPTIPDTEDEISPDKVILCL", "experiment": "PROTAC activity at CRBN/MDM2 (unknown origin) assessed as degradation of MDM2 relative to control", "assay_type": "protein assay"}, "[2]": {"system": "A549", "experiment": "Cytotoxicity against human A549 cells measured after 24 hrs by MTT assay", "assay_type": "functional, cell-based", "settings": "A549, 24 h"}, "[3]": {"system": "Huh-7", "experiment": "Cytotoxicity against human Huh-7 cells incubated for 24 hrs by MTT assay", "assay_type": "functional, cell-based", "settings": "Huh-7, 24 h"}, "[4]": {"system": "A549", "experiment": "Cytotoxicity against human A549 cells incubated for 24 hrs by MTT assay", "assay_type": "functional, cell-based", "settings": "A549, 24 h"}, "[5]": {"system": "Huh-7", "experiment": "Cytotoxicity against human Huh-7 cells measured after 24 hrs by MTT assay", "assay_type": "functional, cell-based", "settings": "Huh-7, 24 h"}, "[6]": {"system": "HepG2", "experiment": "Cytotoxicity against human HepG2 cells incubated for 24 hrs by MTT assay", "assay_type": "functional, cell-based", "settings": "HepG2, 24 h"}, "[7]": {"system": "HepG2", "experiment": "Cytotoxicity against human HepG2 cells measured after 24 hrs by MTT assay", "assay_type": "functional, cell-based", "settings": "HepG2, 24 h"}, "[8]": {"molecular_target": "T1, 3-hydroxy-3-methylglutaryl-coenzyme A reductase (Homo sapiens, UniProt P04035)", "T1 sequence (P04035 whole entry)": "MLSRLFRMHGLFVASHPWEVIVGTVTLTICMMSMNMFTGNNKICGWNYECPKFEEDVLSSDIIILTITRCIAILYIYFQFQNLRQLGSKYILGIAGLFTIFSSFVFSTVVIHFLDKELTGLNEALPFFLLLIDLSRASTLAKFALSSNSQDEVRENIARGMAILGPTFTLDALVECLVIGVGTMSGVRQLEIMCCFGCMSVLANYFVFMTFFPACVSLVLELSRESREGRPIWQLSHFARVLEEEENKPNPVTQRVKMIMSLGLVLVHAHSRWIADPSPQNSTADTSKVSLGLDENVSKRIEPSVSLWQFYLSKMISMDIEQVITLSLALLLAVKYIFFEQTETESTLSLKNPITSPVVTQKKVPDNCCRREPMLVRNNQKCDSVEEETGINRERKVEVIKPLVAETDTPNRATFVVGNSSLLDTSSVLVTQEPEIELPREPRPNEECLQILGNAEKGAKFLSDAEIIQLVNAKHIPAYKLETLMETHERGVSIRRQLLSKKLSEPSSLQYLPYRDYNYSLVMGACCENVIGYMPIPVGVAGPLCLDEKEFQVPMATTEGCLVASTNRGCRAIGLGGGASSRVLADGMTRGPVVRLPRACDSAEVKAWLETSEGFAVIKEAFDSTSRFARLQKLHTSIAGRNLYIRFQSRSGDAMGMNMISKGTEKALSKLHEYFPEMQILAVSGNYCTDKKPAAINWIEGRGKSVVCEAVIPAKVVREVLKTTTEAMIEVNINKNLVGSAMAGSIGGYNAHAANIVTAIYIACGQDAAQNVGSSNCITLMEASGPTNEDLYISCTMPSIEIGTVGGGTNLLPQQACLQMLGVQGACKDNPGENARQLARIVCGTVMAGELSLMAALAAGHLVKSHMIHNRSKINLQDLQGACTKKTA", "experiment": "Degradation of HMGCR (unknown origin)"}, "[9]": {"molecular_target": "von Hippel-Lindau disease tumor suppressor/Estrogen receptor (Homo sapiens, UniProt P03372+P40337)", "sequence (P03372 whole entry)": "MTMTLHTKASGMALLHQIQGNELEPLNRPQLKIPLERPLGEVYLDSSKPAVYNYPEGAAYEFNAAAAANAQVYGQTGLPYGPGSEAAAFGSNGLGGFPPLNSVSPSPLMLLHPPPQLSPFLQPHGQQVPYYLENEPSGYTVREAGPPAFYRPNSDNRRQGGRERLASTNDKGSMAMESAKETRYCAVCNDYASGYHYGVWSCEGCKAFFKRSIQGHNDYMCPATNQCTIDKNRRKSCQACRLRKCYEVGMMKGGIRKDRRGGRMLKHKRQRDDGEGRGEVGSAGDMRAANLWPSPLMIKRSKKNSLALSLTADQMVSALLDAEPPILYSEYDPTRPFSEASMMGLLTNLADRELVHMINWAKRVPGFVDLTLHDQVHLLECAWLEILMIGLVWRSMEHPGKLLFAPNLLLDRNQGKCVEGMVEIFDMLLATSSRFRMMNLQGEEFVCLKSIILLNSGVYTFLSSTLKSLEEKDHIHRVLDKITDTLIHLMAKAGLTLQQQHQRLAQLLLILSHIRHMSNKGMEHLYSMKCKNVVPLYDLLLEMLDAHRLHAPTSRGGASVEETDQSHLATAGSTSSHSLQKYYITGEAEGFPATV", "sequence (P40337 whole entry)": "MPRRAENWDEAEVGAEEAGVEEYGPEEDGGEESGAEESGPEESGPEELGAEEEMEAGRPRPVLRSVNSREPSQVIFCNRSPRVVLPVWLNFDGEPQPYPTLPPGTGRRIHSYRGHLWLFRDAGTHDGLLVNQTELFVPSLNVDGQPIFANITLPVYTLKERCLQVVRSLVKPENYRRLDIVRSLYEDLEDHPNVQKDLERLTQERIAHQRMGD", "experiment": "PROTAC activity at VHL/ERalpha in human MCF7 cells assessed as degradation of ERalpha", "assay_type": "cell-based"}, "[10]": {"system": "SK-BR-3", "experiment": "Cytotoxicity against human SK-BR-3 cells by inducing cell cycle arrest incubated for 30 mins measured by FacScallibur flow cytometric analysis", "assay_type": "functional, cell-based", "settings": "SK-BR-3, 0.5 h"}, "[11]": {"molecular_target": "von Hippel-Lindau disease tumor suppressor/G-protein coupled estrogen receptor 1 (Homo sapiens, UniProt Q99527+P40337)", "sequence (Q99527 whole entry)": "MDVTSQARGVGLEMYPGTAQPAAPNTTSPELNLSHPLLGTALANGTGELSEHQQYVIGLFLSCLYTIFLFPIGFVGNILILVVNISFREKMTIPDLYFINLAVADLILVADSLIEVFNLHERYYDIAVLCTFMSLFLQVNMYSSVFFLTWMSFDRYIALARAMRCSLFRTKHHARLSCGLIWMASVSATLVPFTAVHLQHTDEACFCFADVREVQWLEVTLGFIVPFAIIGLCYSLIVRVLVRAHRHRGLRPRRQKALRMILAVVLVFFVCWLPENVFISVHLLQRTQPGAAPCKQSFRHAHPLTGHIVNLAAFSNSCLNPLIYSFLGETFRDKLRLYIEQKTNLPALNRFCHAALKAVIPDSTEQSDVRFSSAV", "sequence (P40337 whole entry)": "as the sequence (P40337 whole entry) above", "experiment": "PROTAC activity at VHL/GPER (unknown origin) assessed as degradation of GPER", "assay_type": "protein assay"}, "[12]": {"system": "MCF7", "experiment": "Cytotoxicity against human MCF7 cells by inducing cell cycle arrest incubated for 30 mins measured by FacScallibur flow cytometric analysis", "assay_type": "functional, cell-based", "settings": "MCF7, 0.5 h"}, "[13]": {"system": "MCF7", "experiment": "cells", "settings": "Homo sapiens, MCF7, 72 h", "description": "Antiproliferative activity against human MCF7 cells incubated for 72 hrs by MTT assay"}, "[14]": {"molecular_target": "von Hippel-Lindau disease tumor suppressor/3-hydroxy-3-methylglutaryl-coenzyme A reductase (Homo sapiens, UniProt P04035+P40337)", "sequence (P40337 whole entry, looked up, one chain of several)": "as the sequence (P40337 whole entry) above", "experiment": "PROTAC activity at VHL/HMGCR in human HepG2 cells assessed as degradation of HMGCR measured at 1 uM after 16 hrs relative to control", "assay_type": "cell-based"}, "[15]": {"molecular_target": "T1, 3-hydroxy-3-methylglutaryl-coenzyme A reductase", "experiment": "Inhibition of HMGCR (unknown origin)"}, "[16]": {"system": "SK-MEL-5", "experiment": "In vivo antitumor activity against human SK-MEL-5 cells xenografted in BALB/c nude mouse administered intraperitoneally every 2 days for 17 days", "assay_type": "functional, organism-based"}, "[17]": {"molecular_target": "Protein cereblon/Basigin (Homo sapiens, UniProt P35613+Q96SW2)", "sequence (P35613 whole entry)": "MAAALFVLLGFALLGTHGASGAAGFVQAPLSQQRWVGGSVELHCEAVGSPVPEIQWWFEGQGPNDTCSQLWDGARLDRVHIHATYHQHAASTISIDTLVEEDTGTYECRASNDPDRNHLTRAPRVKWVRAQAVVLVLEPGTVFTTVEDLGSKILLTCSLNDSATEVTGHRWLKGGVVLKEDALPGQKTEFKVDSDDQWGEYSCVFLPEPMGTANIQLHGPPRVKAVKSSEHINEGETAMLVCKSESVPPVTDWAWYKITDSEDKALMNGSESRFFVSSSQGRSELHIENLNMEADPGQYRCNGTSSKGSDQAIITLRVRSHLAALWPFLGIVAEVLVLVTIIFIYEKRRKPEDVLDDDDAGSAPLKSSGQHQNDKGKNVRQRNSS", "sequence (Q96SW2 whole entry)": "as the sequence (Q96SW2 whole entry, looked up) above", "experiment": "PROTAC activity at CRBN/CD147 (unknown origin) assessed as degradation of CD147", "assay_type": "protein assay"}, "[18]": {"experiment": "Degradation of ER in human MCF7 cells", "assay_type": "cell-based"}, "[19]": {"system": "HeLa", "experiment": "Cytotoxicity against human HeLa cells incubated for 72 hrs by CCK-8 assay", "assay_type": "functional, cell-based"}, "[20]": {"system": "HFF-1", "experiment": "Cytotoxicity against human HFF-1 cells incubated for 72 hrs by CCK-8 assay", "assay_type": "functional, cell-based", "settings": "HFF-1, 72 h"}}, "data": [{"smiles": "C[C@H]1[C@H](C)CCC2(C(=O)NCCOCCOCCOCCNc3cccc4c3C(=O)N(C3CCC(=O)NC3=O)C4=O)CC[C@]3(C)C(=CC[C@@H]4[C@@]5(C)CCC(O)C(C)(C)[C@@H]5CC[C@]43C)[C@H]12", "note": "(some centres undefined)", "values": [{"measurement": "Emax", "setting": "[1]", "result": 75, "unit": "%"}, {"measurement": "IC50", "setting": "[2]", "result": 230, "unit": "nM"}, {"measurement": "IC50", "setting": "[3]", "result": 230, "unit": "nM"}, {"measurement": "IC50", "setting": "[4]", "result": 230, "unit": "nM"}, {"measurement": "IC50", "setting": "[5]", "result": 390, "unit": "nM"}, {"measurement": "IC50", "setting": "[6]", "result": 230, "unit": "nM"}, {"measurement": "IC50", "setting": "[7]", "result": 380, "unit": "nM"}]}, {"smiles": "CC(=O)N1N=CC2C[C@@]3(C)C(=CC[C@H]4[C@@H]5CC[C@H]([C@H](C)CCC(=O)N6CCOCC6)[C@@]5(C)CC[C@@H]43)C(C)(C)C21", "note": "(some centres undefined)", "values": [{"measurement": "DC50", "setting": "[8]", "result": 220, "unit": "nM"}]}, {"smiles": "Cc1ncsc1-c1ccc(CNC(=O)[C@@H]2C[C@@H](O)CN2C(=O)[C@@H](NC(=O)COCCOCCOCCOCC(=O)O[C@H]2CC[C@H]3[C@@H]4CCc5cc(O)ccc5[C@H]4CC[C@]23C)C(C)(C)C)cc1", "values": [{"measurement": "DC50", "setting": "[9]", "result": 10000, "unit": "nM"}, {"measurement": "IC50", "setting": "[10]", "result": 10900, "unit": "nM"}, {"measurement": "DC50", "setting": "[11]", "result": 100000, "unit": "nM"}, {"measurement": "IC50", "setting": "[12]", "result": 9000, "unit": "nM"}]}, {"smiles": "COc1c(O)cc(O)c2c(=O)cc(-c3ccccc3)oc12", "note": "[WOGONIN]", "values": [{"measurement": "IC50", "setting": "[13]", "result": 30, "unit": "nM"}]}, {"smiles": "Cc1ncsc1-c1ccc(CNC(=O)[C@@H]2C[C@@H](O)CN2C(=O)[C@H](NC(=O)CCCCCCCCCCNC(=O)OC2C[C@@H](C)C=C3C=C[C@H](C)[C@H](CC[C@@H]4C[C@@H](O)CC(=O)O4)[C@H]32)C(C)(C)C)cc1", "note": "(some centres undefined)", "values": [{"measurement": "Emax", "setting": "[14]", "result": 56, "unit": "%"}, {"measurement": "IC50", "setting": "[15]", "result": 1300, "unit": "nM"}]}, {"smiles": "COC(=O)C1=CC[C@]23CC[C@H]([C@@]2(OC(C)=O)CC1)[C@](C)(/C=C/C=C(\\C)C(=O)NCCNc1cccc2c1C(=O)N(C1CCC(=O)NC1=O)C2=O)OC3=O", "note": "(some centres undefined)", "values": [{"measurement": "IC50", "setting": "[16]", "result": 6230, "unit": "nM"}, {"measurement": "IC50", "setting": "[17]", "result": 6720, "unit": "nM"}]}, {"smiles": "Cc1ncsc1-c1ccc(CNC(=O)[C@@H]2C[C@@H](O)CN2C(=O)[C@@H](NC(=O)COCCOCCOCCOCC(=O)NCCOCCOCCOCCOCCOCCOCCOCCOCCC(=O)O[C@H]2CC[C@H]3[C@@H]4CCc5cc(O)ccc5[C@H]4CC[C@]23C)C(C)(C)C)cc1", "values": [{"measurement": "DC50", "setting": "[9]", "result": 10000, "unit": "nM"}, {"measurement": "IC50", "setting": "[10]", "result": 11100, "unit": "nM"}, {"measurement": "DC50", "setting": "[11]", "result": 100000, "unit": "nM"}, {"measurement": "IC50", "setting": "[12]", "result": 17000, "unit": "nM"}]}, {"smiles": "CC1=CC(=O)[C@H]2/C(C=O)=C\\C[C@H]3[C@@H]([C@@H](C)/C=C\\C=C/C(=O)OCCOCCOCCOC(=O)CC45CC6CC(CC(C6)C4)C5)CC[C@]3(C)C[C@H]12", "values": [{"measurement": "DC50", "setting": "[18]", "result": 1000, "unit": "nM"}]}, {"smiles": "Cc1ncsc1-c1ccc([C@H](C)NC(=O)[C@@H]2CC(OC(=O)CCCCn3cc(CNC(=O)CC[C@H](NC(=O)c4ccc(NCc5cnc6[nH]c(N)nc(=O)c6n5)cc4)C(=O)O)nn3)CN2C(=O)[C@@H](NC(=O)COCCCOCCNC(=O)C[C@@H]2N=C(c3ccc(Cl)cc3)c3c(sc(C)c3C)-n3c(C)nnc32)C(C)(C)C)cc1", "note": "(some centres undefined)", "values": [{"measurement": "IC50", "setting": "[19]", "result": 246, "unit": "nM"}, {"measurement": "IC50", "setting": "[20]", "result": "> 10000", "unit": "nM"}]}]}
